The target of data set [1] is T1, guanylate cyclase-C (GC-C) (Homo sapiens, UniProt P25092). The data set can be described thus: cGMP response in T84 cells (GC-C agonist activity). In kind it is cell-based. Also on record: tested for guanylate cyclase-C (GC-C) agonist activity in T84 cells; endogenous in cells; host or cells: T84 cells. On the procedure: Linaclotide and Cys1-IMD were tested for guanylate cyclase-C (GC-C) agonist activity in T84 cells as follows. In each well of a 96-well plate, approximately 200,000 T84 cells/well was first incubated with 1 mM 3-isobutyl-1-methylxanthine (IBMX) in 0.18 mL of Dulbecco's modified Eagle's medium (DMEM) for 10 minutes at 37° C. Each peptide was diluted to final concentrations ranging from 0.1 to 10,000 nM, and 0.02 mL of each dilution was added in duplicate to a 96-well plate containing the T84 cells, for a final volume of 0.20 mL per well. The peptide reactions were incubated for 30 min at 37° C. Following the incubation, the supernatants were removed and discarded and the cells were lysed with cold 0.1 M hydrochloric acid (HCl) for 30 min on ice. The cell debris was removed by centrifugation and the concentration of guanosine 3′,5′-cyclic monophosphate (cyclic GMP) in each lysate was determined using liquid chromatography with tandem mass spectrometry. The data were used to construct dose-response curves and calculate half-maximal effective concentration (EC50) values for each test article.
T1 sequence (P25092 24-1073): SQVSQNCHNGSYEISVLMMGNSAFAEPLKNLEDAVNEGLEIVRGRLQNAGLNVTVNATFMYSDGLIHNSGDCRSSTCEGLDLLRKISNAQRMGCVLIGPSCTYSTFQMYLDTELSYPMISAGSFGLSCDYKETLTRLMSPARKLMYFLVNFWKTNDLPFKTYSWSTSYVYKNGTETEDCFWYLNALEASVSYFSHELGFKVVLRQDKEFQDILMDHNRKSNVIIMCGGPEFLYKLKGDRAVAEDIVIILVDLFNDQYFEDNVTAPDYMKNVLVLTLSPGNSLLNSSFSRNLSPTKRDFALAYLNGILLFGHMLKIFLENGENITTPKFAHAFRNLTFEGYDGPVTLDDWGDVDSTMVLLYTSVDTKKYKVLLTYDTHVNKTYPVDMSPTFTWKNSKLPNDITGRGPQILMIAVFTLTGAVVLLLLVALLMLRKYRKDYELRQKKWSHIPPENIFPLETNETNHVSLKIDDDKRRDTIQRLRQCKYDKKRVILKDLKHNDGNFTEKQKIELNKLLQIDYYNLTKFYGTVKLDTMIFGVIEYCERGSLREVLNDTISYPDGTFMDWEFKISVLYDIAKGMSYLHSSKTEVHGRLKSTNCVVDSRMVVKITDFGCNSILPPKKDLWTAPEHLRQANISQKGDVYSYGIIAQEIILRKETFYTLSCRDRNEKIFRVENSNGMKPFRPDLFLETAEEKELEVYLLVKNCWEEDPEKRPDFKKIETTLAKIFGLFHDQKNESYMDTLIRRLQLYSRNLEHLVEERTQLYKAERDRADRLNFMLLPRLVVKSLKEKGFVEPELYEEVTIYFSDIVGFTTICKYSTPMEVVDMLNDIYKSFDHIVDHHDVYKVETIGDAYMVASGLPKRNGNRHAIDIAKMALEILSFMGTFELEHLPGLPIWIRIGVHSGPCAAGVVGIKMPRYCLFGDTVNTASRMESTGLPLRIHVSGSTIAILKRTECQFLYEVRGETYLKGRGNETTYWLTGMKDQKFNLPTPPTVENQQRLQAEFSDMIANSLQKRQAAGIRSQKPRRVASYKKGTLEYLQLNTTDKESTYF

Data set [2] concerns the target T1, guanylate cyclase-C (GC-C). The data set can be described thus: Competitive radioligand ([125I]-pSTa) binding assay on T84 cells. More on the design: cell-surface GC-C receptors on human colonic epithelial (T84) cells; endogenous in cells; host or cells: T84 human colonic epithelial cells. To be noted: competition with 170 pM [125I]-pSTa for cell-surface GC-C receptors on T84 cells; read-out: inhibition constant (Ki), relative binding affinity. On the procedure:
The relative binding affinities of linaclotide and Cys1-IMD to the guanylate cyclase-C receptor (GC-C) were determined using a competitive-binding assay in which the peptides competed with a known GC-C agonist, porcine-derived heat-stable enterotoxin (pSTa), for binding sites on cell-surface GC-C receptors on human colonic epithelial (T84) cells. The pSTa was radiolabeled with ^125I to enable measurement of its receptor binding. The competitive-binding assay was performed by adding various concentrations of each peptide (0.1 to 3,000 nM) to 0.20 mL reaction mixtures containing Dulbecco's modified Eagle's medium (DMEM), 0.5% bovine serum albumin (BSA), 2.0×10^5 T84 cells, and 170 pM [^125I]-pSTa (200,000 cpm). The data were used to construct competitive radioligand-binding curves and determine the relative binding affinities of linaclotide and Cys1-IMD, as measured by their IC50 and Ki values.

For data set [3] the following is noted: after oral administration at therapeutic dose levels; cited from earlier work.

Where a SMILES comes first, the peptide text is derived from it. Bridges are numbered along the chain shown (N, C = ends).

For `C[C@@H]1NC(=O)[C@@H]2CCCN2C(=O)[C@H](CC(N)=O)NC(=O)[C@@H]2CSSC[C@H](N)C(=O)N[C@H]3CSSC[C@H](NC1=O)C(=O)N[C@@H]([C@@H](C)O)C(=O)NCC(=O)N[C@H](C(=O)N[C@@H](Cc1ccc(O)cc1)C(=O)O)CSSC[C@H](NC(=O)[C@H](Cc1ccc(O)cc1)NC(=O)[C@H](CCC(=O)O)NC3=O)C(=O)N2` [Linaclotide, Cys Cys Glu Tyr Cys Cys Asn Pro Ala Cys Thr Gly Cys Tyr] (H-CCEYCCNPACTGCY-OH; disulfide 1-6, 2-10, 5-13 (inferred); N-terminus and C-terminus assumed), in data set [1], the midpoint of the response, the EC50, lay at 0.315 ± 0.105 µM. In addition, the Ki (commonly a measure of affinity in units of concentration, obtained from inhibition or displacement) in data set [2] worked out at 0.0039 ± 0.0016 µM. Also, in data set [3], the “levels of linaclotide seen systemically” value is “no detectable levels”.
